Measurements as given in US4120810A, “Paint remover with improved safety characteristics” (priority 1976, dated 1978).
Read-outs that look alike come from different tables or passages of the source.

How the values were obtained:
[1] = cited from earlier work
[2] = Minutes to complete bubbling / softening of finishes (Example 5)
Protocol: A 50 mole percent mixture of diacetone alcohol as the first chemical and Panasol AN-1 as the second chemical was compared against pure diacetone alcohol on a variety of surfaces.
Latex enamel was also tested.

[3] = Deglosser test: adhesion of latex enamel to wiped alkyd enamel (Example 6); conditions: after wiping off cooking oil with saturated paper towel, painting and drying
Protocol: The mixture of Example 5 and straight diacetone alcohol were tested as deglossers, wherein an alkyd surface was covered with cooking oil. Then a paper towel saturated with the liquid was used to wipe off both the oil and the surface sheen of the alkyd enamel. This was followed by painting with latex enamel. […] Said commercially available deglossers contained such chemicals as methylene chloride, alcohols, and petroleum distillates.

[4] = Paint stripping, xylene and diacetone alcohol mixture (Example 7)
From the text: A 50 mole percent mixture of xylene and diacetone alcohol was compared against the pure components on a number of substrates for use as paint strippers. […] On an alkyd sash and trim paint the xylene was ineffective.

[5] = 75° F.; cited from earlier work
[6] = Paint removal comparison of NMP/Panasol AN-1 mixtures with the pure components (Example 1)
Protocol: Various mixtures of Panasol AN-1 and NMP were compared against the paint removal efficiency of the pure components. The following surfaces were tested: alkyd enamel, polyurethane varnish, two-part epoxy enamel, polyurethane marine enamel, latex enamel, and a surface with seven layers of aged alkyd enamels.
The straight line drawn at a 45° angle represents the expected effectiveness, based on the state of the art with an averaging of the properties of the pure components (R. S. Downing, ibid.).

[7] = Paint removal, NMP and benzyl alcohol (Example 9); conditions: alone
From the text: However, its mixture with NMP had substantially less effectiveness than either pure component.

[8] = Paint removal, N-vinyl 2-pyrrolidone mixtures and pyrrolidone 2 (Example 4); conditions: variety of surfaces, as in Example 1
Protocol: N-vinyl 2-pyrrolidone was substituted for NMP in the mixtures prepared in Example 1. They were tested as a paint remover on a variety of surfaces, also as in Example 1.

## CC(C)=O [Acetone]
[1]; background literature
  toxicity / health effects in words: low toxicity

## CC(=O)CC(C)(C)O [Diacetone Alcohol, diacetone alcohol]
[2]; Acrylic enamel
  Minutes to Complete Bubbling: 32 min
[2]; Alkyd enamel
  Minutes to Complete Bubbling: 40 min
[2]; Latex enamel (does not bubble)
  time to softening: 4 min
[2]; Polyurethane varnish
  Minutes to Complete Bubbling: 36 min
[2]; alkyd and epoxy surfaces
  softening and bubbling: would soften alkyd and epoxy surfaces, permitting scraping but would not bubble them in a reasonable time
[2]; polyurethane enamel
  Minutes to Complete Bubbling: 17 min
[3]
  adhesion of the latex enamel to the alkyd enamel: excellent
[4]; alkyd sash and trim paint
  paint stripping effectiveness: effective but very slow
[4]; brushing lacquer
  paint stripping effectiveness: equally effective

## CO [Methanol]
[1]; Sax, Dangerous Properties of Industrial Materials
  elimination: slowness with which it is eliminated
[1]; background literature
  toxicity / health effects in words: prolongs the period of cardiovascular stress caused by the methylene chloride
[1]; background literature, listed as methanol
  toxicity / health effects in words: Severe exposures may cause dizziness, unconsciousness, sighing respiration, cardiac depression and eventually death

## ClCCl [Methylene chloride]
[5]
  vapor pressure: 400 mm Hg
[1]; background literature
  metabolism: metabolized to carbon monoxide

## CN1CCCC1=O [NMP, n-methyl 2 pyrrolidone]
[6]; epoxy
  removal time: ten
[6]; old lead based paint
  paint removal effectiveness: equally effective
[6]; one surface with a modern coating
  paint removal effectiveness: would not succumb to NMP
[6]; polyurethane enamel
  removal time: 5 min

## c1ccccc1 [benzene]
[1]; background literature
  toxicity / health effects in words: induces severe chronic toxic effects, causing anemia and damaging the bone marrow

## OCc1ccccc1 [benzyl alcohol]
[7]
  paint removal ability: some ability to soften paint and remove it

## O=C1CCCN1 [pyrrolidone 2]
[8]
  paint removal effectiveness: ineffective as a paint remover

## xylene
[4]; alkyd sash and trim paint
  paint stripping effectiveness: ineffective
[4]; brushing lacquer
  paint stripping effectiveness: ineffective
[4]; latex flat paint
  paint stripping effectiveness: very slow acting
